Experimental data reported in US10870619B2 (CJ CHEILJEDANG CORPORATION, priority 2016, dated 2020).
Where two headings read alike, the source gives them in different places.

Conditions: crystals obtained by the crystallization process of the respective example (pH adjustment, coagulant, pH readjustment, cooling rate vary)
Protocol: As used herein, the term “bulk density” refers to the density measured based on the volume including voids generated between particles when powder is filled into a container. In particular, the density of powder which is measured after treating the powder by tapping a cylinder filled with the powder with a constant force so as to make the powder within the cylinder dense is called tapped bulk density (hereinafter, “BD”).

## CSCC[C@H](N)C(=O)O [Example 20, L-methionine]
  BD (tapped bulk density) of the obtained L-methionine crystals: 760 g/L
Listed as Ex. 20
  BD (tapped bulk density) of the obtained L-methionine crystals: 760 g/L

## CSCC[C@H](N)C(=O)O [Comparative Example 2, L-methionine, reference compound]
  BD (tapped bulk density) of the obtained L-methionine crystals: 520 g/L
Listed as Comp. Ex. 2
  BD (tapped bulk density) of the obtained L-methionine crystals: 520 g/L

## CSCC[C@H](N)C(=O)O [Example 22, L-methionine]
  BD (tapped bulk density) of the obtained L-methionine crystals: 700 g/L
Listed as Ex. 22
  BD (tapped bulk density) of the obtained L-methionine crystals: 700 g/L

## CSCC[C@H](N)C(=O)O [Example 3, L-methionine]
  BD (tapped bulk density) of the obtained L-methionine crystals: 610 g/L
Listed as Ex. 3
  BD (tapped bulk density) of the obtained L-methionine crystals: 610 g/L

## CSCC[C@H](N)C(=O)O [Comparative Example 12, L-methionine, reference compound]
  BD (tapped bulk density) of the obtained L-methionine crystals: 660 g/L
Listed as Comp. Ex. 12
  BD (tapped bulk density) of the obtained L-methionine crystals: 660 g/L

## CSCC[C@H](N)C(=O)O [Example 7, L-methionine]
  BD (tapped bulk density) of the obtained L-methionine crystals: 570 g/L
Listed as Ex. 7
  BD (tapped bulk density) of the obtained L-methionine crystals: 570 g/L

## CSCC[C@H](N)C(=O)O [Comparative Example 5, L-methionine, reference compound]
  BD (tapped bulk density) of the obtained L-methionine crystals: 490 g/L
Listed as Comp. Ex. 5
  BD (tapped bulk density) of the obtained L-methionine crystals: 490 g/L

## CSCC[C@H](N)C(=O)O [Example 1, L-methionine]
  BD (tapped bulk density) of the obtained L-methionine crystals: 370 g/L
Listed as Ex. 1
  BD (tapped bulk density) of the obtained L-methionine crystals: 370 g/L

## CSCC[C@H](N)C(=O)O [Comparative Example 3, L-methionine, reference compound]
  BD (tapped bulk density) of the obtained L-methionine crystals: 500 g/L
Listed as Comp. Ex. 3
  BD (tapped bulk density) of the obtained L-methionine crystals: 500 g/L

## CSCC[C@H](N)C(=O)O [Comparative Example 4, L-methionine, reference compound]
  BD (tapped bulk density) of the obtained L-methionine crystals: 500 g/L
Listed as Comp. Ex. 4
  BD (tapped bulk density) of the obtained L-methionine crystals: 500 g/L

## CSCC[C@H](N)C(=O)O [Example 16, L-methionine]
  BD (tapped bulk density) of the obtained L-methionine crystals: 480 g/L
Listed as Ex. 16
  BD (tapped bulk density) of the obtained L-methionine crystals: 480 g/L

## CSCC[C@H](N)C(=O)O [Comparative Example 10, L-methionine, reference compound]
  BD (tapped bulk density) of the obtained L-methionine crystals: 630 g/L
Listed as Comp. Ex. 10
  BD (tapped bulk density) of the obtained L-methionine crystals: 630 g/L

## CSCC[C@H](N)C(=O)O [Example 18, L-methionine]
  BD (tapped bulk density) of the obtained L-methionine crystals: 730 g/L
Listed as Ex. 18
  BD (tapped bulk density) of the obtained L-methionine crystals: 730 g/L

## CSCC[C@H](N)C(=O)O [Comparative Example 1, L-methionine, reference compound]
  BD (tapped bulk density) of the obtained L-methionine crystals: 190 g/L
Listed as Comp. Ex. 1
  BD (tapped bulk density) of the obtained L-methionine crystals: 190 g/L

## CSCC[C@H](N)C(=O)O [Example 17, L-methionine]
  BD (tapped bulk density) of the obtained L-methionine crystals: 690 g/L
Listed as Ex. 17
  BD (tapped bulk density) of the obtained L-methionine crystals: 690 g/L

## CSCC[C@H](N)C(=O)O [Example 13, L-methionine]
  BD (tapped bulk density) of the obtained L-methionine crystals: 530 g/L
Listed as Ex. 13
  BD (tapped bulk density) of the obtained L-methionine crystals: 530 g/L

## CSCC[C@H](N)C(=O)O [Comparative Example 13, L-methionine, reference compound]
  BD (tapped bulk density) of the obtained L-methionine crystals: 400 g/L
Listed as Comp. Ex. 13
  BD (tapped bulk density) of the obtained L-methionine crystals: 400 g/L

## CSCC[C@H](N)C(=O)O [Example 2, L-methionine]
  BD (tapped bulk density) of the obtained L-methionine crystals: 350 g/L
Listed as Ex. 2
  BD (tapped bulk density) of the obtained L-methionine crystals: 350 g/L

## CSCC[C@H](N)C(=O)O [Comparative Example 11, L-methionine, reference compound]
Listed as Comp. Ex. 11
  BD (tapped bulk density) of the obtained L-methionine crystals: 410 g/L

## CSCC[C@H](N)C(=O)O [Comparative Example 7, L-methionine, reference compound]
  BD (tapped bulk density) of the obtained L-methionine crystals: 510 g/L
Listed as Comp. Ex. 7
  BD (tapped bulk density) of the obtained L-methionine crystals: 510 g/L

## CSCC[C@H](N)C(=O)O [Example 11, L-methionine]
  BD (tapped bulk density) of the obtained L-methionine crystals: 550 g/L
Listed as Ex. 11
  BD (tapped bulk density) of the obtained L-methionine crystals: 550 g/L

## CSCC[C@H](N)C(=O)O [Example 19, L-methionine]
  BD (tapped bulk density) of the obtained L-methionine crystals: 750 g/L
Listed as Ex. 19
  BD (tapped bulk density) of the obtained L-methionine crystals: 750 g/L

## CSCC[C@H](N)C(=O)O [Example 6, L-methionine]
  BD (tapped bulk density) of the obtained L-methionine crystals: 580 g/L
Listed as Ex. 6
  BD (tapped bulk density) of the obtained L-methionine crystals: 580 g/L

## CSCC[C@H](N)C(=O)O [Comparative Example 9, L-methionine, reference compound]
  BD (tapped bulk density) of the obtained L-methionine crystals: 460 g/L
Listed as Comp. Ex. 9
  BD (tapped bulk density) of the obtained L-methionine crystals: 460 g/L

## CSCC[C@H](N)C(=O)O [Example 4, L-methionine]
  BD (tapped bulk density) of the obtained L-methionine crystals: 590 g/L
Listed as Ex. 4
  BD (tapped bulk density) of the obtained L-methionine crystals: 590 g/L

## CSCC[C@H](N)C(=O)O [Example 14, L-methionine]
  BD (tapped bulk density) of the obtained L-methionine crystals: 600 g/L
Listed as Ex. 14
  BD (tapped bulk density) of the obtained L-methionine crystals: 600 g/L

## CSCC[C@H](N)C(=O)O [Example 15, L-methionine]
  BD (tapped bulk density) of the obtained L-methionine crystals: 500 g/L
Listed as Ex. 15
  BD (tapped bulk density) of the obtained L-methionine crystals: 500 g/L

## CSCC[C@H](N)C(=O)O [Comparative Example 6, L-methionine, reference compound]
  BD (tapped bulk density) of the obtained L-methionine crystals: 450 g/L
Listed as Comp. Ex. 6
  BD (tapped bulk density) of the obtained L-methionine crystals: 450 g/L

## CSCC[C@H](N)C(=O)O [Example 12, L-methionine]
  BD (tapped bulk density) of the obtained L-methionine crystals: 560 g/L
Listed as Ex. 12
  BD (tapped bulk density) of the obtained L-methionine crystals: 560 g/L

## CSCC[C@H](N)C(=O)O [Comparative Example 8, L-methionine, reference compound]
  BD (tapped bulk density) of the obtained L-methionine crystals: 450 g/L
Listed as Comp. Ex. 8
  BD (tapped bulk density) of the obtained L-methionine crystals: 450 g/L

## CSCC[C@H](N)C(=O)O [Example 10, L-methionine]
  BD (tapped bulk density) of the obtained L-methionine crystals: 580 g/L
Listed as Ex. 10
  BD (tapped bulk density) of the obtained L-methionine crystals: 580 g/L

## CSCC[C@H](N)C(=O)O [Example 8, L-methionine]
  BD (tapped bulk density) of the obtained L-methionine crystals: 570 g/L
Listed as Ex. 8
  BD (tapped bulk density) of the obtained L-methionine crystals: 570 g/L

## CSCC[C@H](N)C(=O)O [Example 5, L-methionine]
  BD (tapped bulk density) of the obtained L-methionine crystals: 590 g/L
Listed as Ex. 5
  BD (tapped bulk density) of the obtained L-methionine crystals: 590 g/L

## CSCC[C@H](N)C(=O)O [Example 9, L-methionine]
  BD (tapped bulk density) of the obtained L-methionine crystals: 560 g/L
Listed as Ex. 9
  BD (tapped bulk density) of the obtained L-methionine crystals: 560 g/L

## CSCC[C@H](N)C(=O)O [Example 21, L-methionine]
  BD (tapped bulk density) of the obtained L-methionine crystals: 800 g/L
Listed as Ex. 21
  BD (tapped bulk density) of the obtained L-methionine crystals: 800 g/L
